From PMC12692291, “Development and In Vitro Evaluation of [^64Cu]Cu-NOTA-TP-PSMA, a Novel Radiotheranostic Agent Against Prostate Cancer” (International Journal of Molecular Sciences, 2025)
Where two headings read alike, the source gives them in different places.

Assays:
[1] = Solubility in aqueous media; assay type: physicochemical
LNCaP cells [2] = assay type: cell-based
Procedure: (§1) The cytotoxicity of compounds 1–3, ^natCu-NOTA-TP-PSMA, and cisplatin (platinum-based drug) were assessed with PrestoBlue, a resazurin-based method to assess mitochondrial function in LNCaP and HEK-293 cells at 24, 48, and 72 h. Effective concentration (EC50) values summarized in Table 3 were calculated from the dose–response curves of each compound (Figure S7).
(§2) Cytotoxicity was evaluated using a resazurin-based assay (PrestoBlue) in 96-well plates. LNCaP (15,000 cells/well) and HEK-293 (10,000 cells/well) were seeded and incubated for 72 h. Cells were then treated with serial dilutions of [^64Cu]Cu-NOTA-TP-PSMA and controls for 24, 48, or 72 h. After treatment, cells were rinsed with PBS and incubated with PrestoBlue reagent for 40 min. Fluorescence was measured at 570 nm (excitation) and 610 nm (emission). Background readings from blank wells were subtracted. Cell viability was calculated relative to untreated controls. IC50 values were determined using dose–response curves. Controls included [^64Cu]Cu-NOTA-TP, [^64Cu]Cu-NOTA-PSMA, ^natCu-NOTA-TP-PSMA, and cisplatin (0–500 µM in 0.9% saline). All assays were performed in triplicate and all data presented in Results are the average of three independent experiments. TP conjugates were dissolved in 1% DMSO and diluted in saline. Inhibitory concentration 50 (IC50) values were calculated to quantify the effectiveness of the compounds.

HEK-293 cells [3] = test: PrestoBlue cytotoxicity assay in HEK-293 cells; assay type: cell-based, human; conditions: read-out: EC50 HEK293
Procedure: as §1, §2

HEK-293 cells [4] = test: Nuclear localization in HEK-293 cells; assay type: cell-based, human
Procedure: (§3) To assess nuclear localization, LNCaP and HEK-293 cells were incubated with 1 MBq of [^64Cu]Cu-NOTA-TP-PSMA 1 for 24, 48, and 72 h. Nuclear extraction was performed following a previously established protocol. Following incubation, cells were lysed and fractionated using cytoskeletal buffer to isolate nuclear components. Nuclear and cytoplasmic radioactivity were measured using a HIDEX automatic gamma counter. Data were used to evaluate time-dependent nuclear accumulation of the tracer.

HEK-293 cells [5] = test: Efflux (retention) study in HEK-293 cells; assay type: cell-based, human; conditions: Table S3 second part (HEK-293)
Procedure: (§4) Efflux studies were conducted by incubating the cells with the compound for an initial period of 1 h, after which the incubation medium was replaced with fresh, compound-free medium. The retained intracellular radioactivity was then measured at various time points up to 24 h and expressed as the percentage of retention relative to the 0-h time point, defined as the time immediately after medium replacement.

LNCaP cells [6] = test: Nuclear localization in LNCaP cells; assay type: cell-based
Procedure: as §3

LNCaP cells [7] = test: Efflux (retention) study in LNCaP cells; assay type: cell-based; conditions: Table S3 first part (LNCaP)
Procedure: as §4

LNCaP cells [8] = test: Cellular uptake and internalization in LNCaP cells; assay type: cell-based; conditions: LNCaP, 24 h, 37 °C, 1 nM
Procedure: LNCaP cells (1 × 10^5 cells/well) were seeded into 24-well plates and incubated for 72 h. Cells were treated with 1nM [^64Cu]Cu-NOTA-TP-PSMA or control monomers ([^64Cu]Cu-NOTA-TP and [^64Cu]Cu-NOTA-PSMA), each containing 0.1 MBq of radioactivity in RPMI-1640 medium.
Uptake and internalization were assessed at multiple time points (30 min to 24 h). At each timepoint, cells were washed with cold PBS, detached with trypsin, and counted using a hemocytometer. For internalization studies, surface-bound radioactivity was removed using 50 mM glycine-HCl buffer (pH 2.2) for 5 min, followed by additional PBS washes.
To investigate the internalization mechanism, parallel experiments were conducted at 4 °C to evaluate passive versus active uptake. Receptor specificity was assessed via blocking assays using 1 µM ^natCu-NOTA-TP-PSMA (1000-fold excess) co-incubated with 1 nM radiolabeled tracer. Post-incubation, intracellular radioactivity was quantified using a HIDEX gamma counter. All results were normalized to 10^6 cells and expressed as percent counts per minute per million cells (%CPM/10^6 cells).

Structure (SMILES): O=C(O)CC[C@H](NC(=O)N[C@@H](CCCCNC(=O)[C@@H](Cc1ccc2ccccc2c1)NC(=O)[C@H]1CC[C@H](CNC(=O)CNC(=O)COCCOCCNC(=O)CN2CCN(CC(=O)O)CCN(CC(=O)O)CC2)CC1)C(=O)O)C(=O)O [^natCu-NOTA-PSMA, metal not drawn]
- solubility [1]: readily soluble in aqueous media

Structure (SMILES): N.N.[Cl][Pt][Cl] [Cisplatin, cisplatin, reference compound]
- EC50 (LNCaP cells [2]; 24 h): 81 µM
- EC50 (LNCaP cells [2]; 48 h): 30.4 µM
- EC50 (LNCaP cells [2]; 72 h): 22.9 µM
- EC50 (HEK-293 cells [3]; 24 h): 31.3 µM
- EC50 (HEK-293 cells [3]; 48 h): 41 µM
- EC50 (HEK-293 cells [3]; 72 h): 27.5 µM

Structure (SMILES): O=C(O)CC[C@H](NC(=O)N[C@@H](CCCCNC(=O)[C@@H](Cc1ccc2ccccc2c1)NC(=O)[C@H]1CC[C@H](CNC(=O)CNC(=O)COCCOCCNC(=O)CN2CCN(CC(=O)O)CCN(CC(=O)O)CC2)CC1)C(=O)O)C(=O)O [[^64Cu]Cu-NOTA-PSMA 3, metal not drawn]
- nuclear uptake in HEK-293 cells (HEK-293 cells [4]; 48 h): 0.13 ± 0.05%
- nuclear uptake in HEK-293 cells (HEK-293 cells [4]; 72 h): 0.23 ± 0.04%
- Nuclear uptake HEK-293 (HEK-293 cells [4]; Table S4, 24 h): 0.07 ± 0.05 %ID/10⁶ cells
- Nuclear uptake HEK-293 (HEK-293 cells [4]; Table S4, 48 h): 0.13 ± 0.05 %ID/10⁶ cells
- Nuclear uptake HEK-293 (HEK-293 cells [4]; Table S4, 72 h): 0.23 ± 0.04 %ID/10⁶ cells
- Retained activity (HEK-293 cells [5]; 0 h after medium replacement): 100 ± 0 %CPM/106 cells
- Retained activity (HEK-293 cells [5]; 1 h): 59.4 ± 22.3 %CPM/106 cells
- Retained activity (HEK-293 cells [5]; 2 h): 45.1 ± 14.5 %CPM/106 cells
- Retained activity (HEK-293 cells [5]; 4 h): 38.4 ± 4.1 %CPM/106 cells
- Retained activity (HEK-293 cells [5]; 24 h): 22.0 ± 1.5 %CPM/106 cells
- nuclear uptake fold difference LNCaP vs HEK-293 (LNCaP cells [6]; 24 h): 5.8 fold
- nuclear uptake in LNCaP cells (LNCaP cells [6]; 48 h): 0.30 ± 0.13%
- nuclear uptake fold difference LNCaP vs HEK-293 (LNCaP cells [6]; 72 h): 1.5 fold
- nuclear uptake in LNCaP cells (LNCaP cells [6]; 72 h): 0.35 ± 0.07%
- Nuclear uptake LNCaP (LNCaP cells [6]; Table S4, 24 h): 0.44 ± 0.25 %ID/10⁶ cells
- Nuclear uptake LNCaP (LNCaP cells [6]; Table S4, 48 h): 0.77 ± 1.02 %ID/10⁶ cells
- Nuclear uptake LNCaP (LNCaP cells [6]; Table S4, 72 h): 0.35 ± 0.07 %ID/10⁶ cells
- Retained activity (LNCaP cells [7]; 0 h after medium replacement): 100 ± 0 %CPM/106 cells
- Retained activity (LNCaP cells [7]; 1 h): 54.8 ± 10.0 %CPM/106 cells
- Retained activity (LNCaP cells [7]; 2 h): 49.6 ± 8.1 %CPM/106 cells
- Retained activity (LNCaP cells [7]; 4 h): 46.6 ± 8.1 %CPM/106 cells
- Retained activity (LNCaP cells [7]; 24 h): 39.2 ± 7.9 %CPM/106 cells
- fold less cytotoxic than compound 1 (LNCaP cells [2]): 5–16 fold
- Internalization (LNCaP cells [8]): 16.7 ± 1.6 %CPM/10^6 cells
- Uptake (LNCaP cells [8]): 22.8 ± 1.2 %CPM/10^6 cells

Structure (SMILES): O=C(O)CC[C@H](NC(=O)N[C@@H](CCCCNC(=O)[C@@H](Cc1ccc2ccccc2c1)NC(=O)C1CCC(CNC(=O)C(CCCCNC(=O)c2cc3[n+]4c(c2)-c2cccc[n+]2[Pt-2]4([Cl])[n+]2ccccc2-3)NC(=O)COCCOCCNC(=O)CN2CCN3CCN(CC2)CC(=O)[O][Cu][O]C(=O)C3)CC1)C(=O)O)C(=O)O (stereo partly drawn) [^natCu-NOTA-TP-PSMA]
- solubility [1]: reduced solubility
